# Experimental data as given in patent US8771691B2, “Methods for the treatment and the prognostic assessment of malignant pleural mesothelioma” (Inserm (Institut National de la Sante et de la Recherche …, priority 2008, dated 2014).
# How the values were obtained:
# [1] = system: MSTO-211H cells; assay: Collagen invasion assay (type I collagen); type: cell-based, human; conditions: 5x10^-6 M SR48692 or 1:50 anti-NTS antibody; 48 hours; controls 13% (untreated), 11% (DMSO)
# Method: (§1) The human mesothelioma cell line, MSTO-211H, was selected because of its intense proliferative activity and its aggressive profile (ATCC CRL-2081, 211H). The MSTO-211H cells were grown in RPMI-1640 medium (Invitrogen, USA) supplemented with 10% fetal calf serum (PAATM) and 2 mM glutamine (Gibco®). Cells were stored at 37° in 5% CO2 atmosphere.
# Collagen invasion assay was performed by using tissue culture inserts composed of a 8 μm porous polycarbonate membrane, placed as inner chamber in 24 well-tissue-culture dishes. This membrane was coated with […] of 2 mg/ml type I collagen diluted in RPMI-1640 medium (Collagen type I, rat tail, Upstate). The bottom chamber was filled with 500 μL RPMI-1640 medium supplemented with 10% fetal calf serum and 2 mM glutamine. 10^3 MSTO-211H cells were seeded on the top of the inner chamber. Cells were treated with 5×10^−6 M of NTSR1 antagonist SR48692 or with 1:50 solution of anti-NTS rabbit antibody (NA1230, Tebu-Bio). Cells were placed for 48 hours at 37° C. in 5% CO2 atmosphere. After incubation, non invasive cells on the upper surface of the collagen matrix were wiped off with cotton swabs. Filter membranes were fixed with 5% glutaraldehyde and remaining cells stained with 0.5% toluidine blue. Quantitation of invasive cells was carried out at the 400× magnification by using the software CELINA.
# [2] = system: MSTO-211H cells; assay: Cellular growth of MSTO-211H cells; type: cell-based, human; conditions: 10^-6 M; cells counted after 24, 48 and 72 h
# Method: as §1
# Cellular growth was performed using 6 well-tissue-culture dishes. 15×10^4 MSTO-211H cells were seeded, after 24 h cells were washed twice with PBS, and complete media containing either 10^−6M SR 48692, a NTSR1 antagonist, or 10^−4M de DMSO was added to the cells. After 24, 48, and 72 h of growth, cells were trypsinized and counted with a cells coulter (Z1 Coulter® Particle Counter, Beckman Coulter™).
# [3] = system: MSTO-211H cells; assay: Wound healing assay (cell migration); type: cell-based, human; conditions: 10^-6 M; at 24 and 30 hours; 0.5% FCS; controls 27% (untreated), 30% (DMSO)
# Method: as §1
# In order to evaluate the impact of the neurotensinergic system on cell migration, a wound healing assay was performed. 1.75×10^6 MSTO-211H cells were plated per well in 6 well dishes containing the medium in order to reach confluence. After 24 hours cells were serum-starved and scarification was performed in a Moscona buffer with a 20 μl pipette tip. Cells were maintained in culture with low serum medium (0.5% FCS) and treated with 10^−6 M SR48692. Control cells were exposed or not to the SR48692 solvent, DMSO. Pictures were taken at the beginning and 24 and 30 hours later with a photonic microscope. The “remaining gap” was calculated as percentage between wound size at 30 hours and initial wound size.
# [4] = patients with MPM, randomized study, two arms; cited from earlier work
SMILES,cells that invaded the type I collagen [1],effect on cell growth [2],residual gap (% of original gap) [3],median survival [4]
COc1cccc(OC)c1-c1cc(C(=O)NC2(C(=O)O)C3CC4CC(C3)CC2C4)nn1-c1ccnc2cc(Cl)ccc12 (stereo not shown) [SR48692],4%,no effect,48%,
N.N.[Cl][Pt][Cl] [cisplatin],,,,9.3 months
